Test results taken from article PMC8348310, “Antioxidants Isolated from Elaeagnus umbellata (Thunb.) Protect against Bacterial Infections and Diabetes in Streptozotocin-Induced Diabetic Rat Model” (Molecules, 2021).

Tests used:
[1] = system: Staphylococcus aureus; assay: Agar well diffusion, zone of inhibition; format: cell-based; conditions: 37 °C, 24 h
Experimental: The antibacterial activity of the isolated compounds (morin, phloroglucinol, and 1-hexyl benzene) was determined using agar well diffusion method. Muller–Hinton agar media was prepared and autoclaved at 15 lbs pressure for 20 min and cooled to 45 °C. […] The entire wells were filled with 100 µL of the isolated compounds (stock solution: 1 mg/mL) using microtiter-pipette and allowed to diffuse at room temperature for 2 h. The plates were incubated at 37 °C for 24 h. In the center hole, Imipenem was added which served as positive control. Simultaneous, addition of an equal concentration of DMSO solvent instead of isolated compounds was used as blank. After incubation, the zones of inhibition were measured in millimeters (mm) and mean values were calculated. The experiments were performed in triplicates.

[2] = system: Salmonella typhi; assay: Agar well diffusion, zone of inhibition; format: cell-based; conditions: Salmonella enterica, TYPHI, 24 h
[3] = system: Escherichia coli; assay: Agar well diffusion, zone of inhibition; format: cell-based; conditions: 37 °C, 24 h
Experimental: (§1) Antibacterial potential of isolated compound was investigated against both Gram-positive and Gram-negative bacterial strains; Escherichia coli, Bacillus cereus, Salmonella typhi, Klebsiella pneumonia, Pseudomonas aeruginosa and Proteus mirabilis. Bacterial strains were provided by the Department of Pharmacy, University of Malakand, Khyber Pakhtunkhwa, Pakistan, and were kept at 4 °C in agar slants in freeze-dried condition until further use.
(§2) Both Gram-positive and Gram-negative bacterial strains Escherichia coli, Bacillus cereus, Salmonella typhi, Klebsiella pneumonia, Pseudomonas aeruginosa and Proteus mirabilis organism viable count per mL in the stock suspension was determined using surface viable counting technique. About 10^8–10^9 colony-forming units (CFU) per mL were used as inoculum in subsequent experiments. A fresh stock suspension was used each time.
(§3) The antibacterial activity of the isolated compounds (morin, phloroglucinol, and 1-hexyl benzene) was determined using agar well diffusion method. Muller–Hinton agar media was prepared and autoclaved at 15 lbs pressure for 20 min and cooled to 45 °C. The standard bacterial stock suspension 10^8–10^9 CFU/mL were spread on Muller–Hinton agar plates and five wells (3 mm in diameter; four on side and one in center) were punched in plates using a sterile cork borer. The entire wells were filled with 100 µL of the isolated compounds (stock solution: 1 mg/mL) using microtiter-pipette and allowed to diffuse at room temperature for 2 h. The plates were incubated at 37 °C for 24 h. In the center hole, Imipenem was added which served as positive control. Simultaneous, addition of an equal concentration of DMSO solvent instead of isolated compounds was used as blank. After incubation, the zones of inhibition were measured in millimeters (mm) and mean values were calculated. The experiments were performed in triplicates.

[4] = system: Klebsiella pneumonia; assay: Agar well diffusion, zone of inhibition; format: cell-based; conditions: Klebsiella pneumoniae, 37 °C, 24 h
Experimental: as §1, §2, §3

[5] = system: Proteus mirabilis; assay: Agar well diffusion, zone of inhibition; format: cell-based; conditions: 37 °C, 24 h
Experimental: as §1, §2, §3

[6] = system: Pseudomonas aeruginosa; assay: Agar well diffusion, zone of inhibition; format: cell-based; conditions: 37 °C, 24 h
Experimental: as §1, §2, §3

[7] = system: Bacillus cereus; assay: Agar well diffusion, zone of inhibition; format: cell-based; conditions: 37 °C, 24 h
Experimental: as §1, §2, §3

[8] = molecular target: T1, Type-VI α-amylase (porcine pancreas) (Sus scrofa, UniProt P00690); assay: In vitro α-amylase inhibition assay (DNSA); format: biochemical; conditions: read-out: % α-Amylase Inhibition Mean ± SEM
T1 construct: purchased Sigma Aldrich (Darmstadt, Germany); host or cells: porcine pancreas
T1 sequence (P00690 16-511): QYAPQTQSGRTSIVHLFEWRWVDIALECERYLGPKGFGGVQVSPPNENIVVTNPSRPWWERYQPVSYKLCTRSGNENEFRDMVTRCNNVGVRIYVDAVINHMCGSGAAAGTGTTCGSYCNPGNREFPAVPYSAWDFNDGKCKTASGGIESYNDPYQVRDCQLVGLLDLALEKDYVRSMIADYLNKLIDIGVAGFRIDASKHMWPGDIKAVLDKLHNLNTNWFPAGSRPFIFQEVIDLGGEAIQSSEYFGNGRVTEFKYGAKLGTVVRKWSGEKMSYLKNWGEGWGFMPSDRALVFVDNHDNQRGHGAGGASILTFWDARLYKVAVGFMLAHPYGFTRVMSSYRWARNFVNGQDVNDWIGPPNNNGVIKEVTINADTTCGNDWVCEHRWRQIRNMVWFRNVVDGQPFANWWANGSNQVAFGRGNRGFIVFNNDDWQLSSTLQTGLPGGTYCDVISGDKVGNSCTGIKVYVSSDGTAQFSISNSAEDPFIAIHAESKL
Experimental: The α-amylase inhibition activity of morin was assessed using 3, 5-dinitrosalicylic acid (DNSA) assay. Morin, phloroglucinol, and 1-hexyl benzene were dissolved in mixture of 10% DMSO, 0.02M Na2HPO4/NaH2PO4 buffer, and 0.006M NaCl (pH 6.9) and finally dilutions (31.05, 62.5, 125, 250, 500 and 1000 µg/mL) were prepared. In total, 200 μL α-amylase (2 units/mL) was mixed with 200 μL morin and incubated at 30 °C for 10 min. After that, 200 μL starch (1%) was added to each serial dilution and incubated for 3 min. To stop the reaction 200 μL sodium potassium tartrate tetrahydrate reagent, 2M NaOH, and […] DNSA (96mM) reagent were added to the reaction mixture. The reaction mixtures were boiled for 10 min at 85–90 °C in a water bath. After cooling the mixture was diluted with 5mL distilled water and finally at 540 nm absorbance was recorded. A blank solution was prepared containing only isolated compound morin but no enzyme. […] The α-amylase enzyme inhibitory activity was calculated by the following Equation (2): (2) % α − amylase Inhibition =control absorbance−sample absorbance/control absorbance×100
(§4) All the in vitro and in vivo experiments were analyzed in three replicates and determined as mean ± SEM. Student’s t-test and one way ANOVA followed by Dunnett’s post hoc multiple comparison test was used. p ≤ 0.05 were considered as significant. Linear regression analysis was used to calculate the IC50 value for % DPPH, ABTS, α-amylase, and α-glucosidase inhibition against the different concentrations of the test samples by means of Excel program 2007.

[9] = molecular target: Type-I α-glucosidase (Baker Yeast) (Saccharomyces cerevisiae, UniProt P53341); assay: In vitro α-glucosidase inhibition assay (PNPG); format: biochemical
Description: Chemicals such as Tween-80 (Scharlau-chem., Barcelona, Spain), normal saline solution (Utsoka Pharma, Las Bela Baluchistan, Pakistan), lipid profile tests kits (Human, Hamburg, Germany), renal profile tests kits, and antioxidant enzymes kits (Biomed: Germany; diagnostic) were used in in vivo study. Mueller Hinton (MH) agar and broth (Merck, Modderfontein, South Africa) were used to culture the bacterial strains. Various solvents such as methanol, n-hexane, ethyl acetate, and chloroform (Merck, Darmstadt, Germany) were also used in this study.
The α-glucosidase inhibition potential of morin was determined according to the reported method with minor changes. The reaction mixture was prepared by taking 100 μL α-glucosidase (0.5 unit/mL), 600 μL phosphate buffer (0.1 M; pH 6.9), and 50 μL of isolated compounds (morin, phloroglucinol, and 1-hexyl benzene) with serial dilutions of 31.05, 62.5, 125, 250, 500 and 1000 µg/mL. All the reaction mixtures were incubated at 37 °C for 15 min. The enzymatic reactions were started by adding 100 μL substrate (p-nitro-phenyl-α-D-glucopyranoside) solution (5 mM) formed in phosphate buffer (0.1 M; pH 6.9), finally incubated at 37 °C for 15 min. The reaction was completed by adding sodium carbonate (400 μL; 0.2 M) solution and then at 405 nm absorbance was measured. The blank solution was prepared containing only isolated compounds without α-glucosidase. Percent α-glucosidase inhibition potential was calculated using Equation (3): (3) % α − glucosidase Inhibition =control absorbance−sample absorbance/control absorbance×100
as §4

[10] = system: STZ-induced diabetic rats; assay: STZ-induced diabetic rat model: serum biochemical parameters (liver, renal, lipid profile, HbA1c); format: in vivo, Sprague Dawley adult albino rats
Experimental: (§5) All the animals were separated into nine groups having eight animals each (Table 1). In the current investigational study STZ-induced diabetic model was used to evaluate the anti-hyperglycemic and anti-hyperlipidemic activity of isolated compound morin in chronic multiple dose experiment. All the animals were treated with their respective treatments for 21 days starting daily at 09:00 am. The fasting blood glucose levels were determined at 0, 4th, 7th, 10th, 15th, and 21st days with glucometer from the tail vein. Changes in the body weight were recorded for untreated control, diabetic, and treated groups in fasting condition from day 1 to day 21 of experimental period and are presented as % increase in body weight.
(§6) According to the reported protocol diabetes was induced into Sprague Dawley adult albino rats by intraperitoneal injection of STZ (50 mg/kg body weight). Blood samples were collected from the tail vein through glucometer strips by means of SD glucometer and the level of blood glucose was measured 72 h after STZ injection. Normal control groups were given normal saline (8 mL/kg, p.o.) as a vehicle, while isolated compound morin to the treatment groups from 3 days after STZ administration for 3 weeks. Animals with blood glucose levels higher than 300 mg/dL were considered diabetic. During the experiment the blood glucose level and body weights were measured.
On 21st day of in vivo antidiabetic activity, all the animals were anesthetized by intraperitoneal (IP) injection of pentobarbital sodium (35 mg/kg body weight) and euthanized by means of cervical decapitation according to the ARRIVE guidelines. Blood samples were collected by cardiac puncture and transferred to EDTA containing tubes. Blood was centrifuged at 3500 rpm for 10 min for the separation of serum. Biochemical parameters like serum alkaline phosphatase (ALP), serum glutamate pyruvate transaminase (SGPT), serum glutamate oxaloacetate transaminase (SGOT) and lipid parameters like total cholesterol (TC), triglycerides (TG), low-density lipoproteins (LDL), high-density lipoprotein (HDL), and serum creatinine in serum were assessed by using Biochemistry analyzer (PS-520; Shenzhen Procan Electronics-China) using diagnostic kits (Reactivos, GPL Barcelona, Spain). According to the reported protocol an enzyme-linked immunosorbent assay (ELISA) kit was used to evaluate the level of glycosylated hemoglobin (HbA1c).

[11] = system: STZ-induced diabetic rats; assay: Pancreas histopathological assessment (H & E); format: in vivo, Sprague Dawley adult albino rats; conditions: glibenclamide 5 mg/kg
Description: For histopathological assessment, the pancreas tissues were removed immediately and washed with cold saline solution to remove the blood. Finally, the pancreas portions were fixed in 10% formalin, dehydrated with mixture of ethanol/xylene and then fixed with paraffin. Staining of tissue slides was done with hematoxylin and eosin (H & E) dye through automatic slide stainer (Sakura Tissue-Tek® DRS™ 2000; Tokyo, Japan). According to the reported assay, the stained slides were observed under microscope to see any variation in pancreatic tissue architecture of STZ-induced diabetic group and treated (glibenclamide/morin) groups.

[12] = system: STZ-induced diabetic rats; assay: STZ-induced diabetic rat model: fasting blood glucose and body weight; format: in vivo, Sprague Dawley adult albino rats; conditions: vs diabetic control rats
Experimental: Sprague Dawley adult albino rats (body weight range = 170–200 g) were used in in vivo studies. The animals were purchased from Rifah Institute of Pharmaceutical Sciences Islamabad. The entire animals were given food and fresh water ad libitum. The animals were adjusted at room temperature around 22–25 °C. The animals were housed three rats per cage and maintained with light/dark cycle of about 12 h. All the in vivo procedures were carried out according to the ARRIVE guidelines and approval was taken from the Departmental Animal Ethical Committee (DAEC/2019/1), University of Malakand.
as §5, §6

[13] = glibenclamide 0.5 mg/kg, morin 15, 30, and 50 mg/kg, vs diabetic control rats
[14] = glibenclamide 5 mg/kg, morin 15, 30, and 50 mg/kg body weight, serum, day 21, vs diabetic control

Sequence of Type-I α-glucosidase (Baker Yeast) (P53341 whole entry): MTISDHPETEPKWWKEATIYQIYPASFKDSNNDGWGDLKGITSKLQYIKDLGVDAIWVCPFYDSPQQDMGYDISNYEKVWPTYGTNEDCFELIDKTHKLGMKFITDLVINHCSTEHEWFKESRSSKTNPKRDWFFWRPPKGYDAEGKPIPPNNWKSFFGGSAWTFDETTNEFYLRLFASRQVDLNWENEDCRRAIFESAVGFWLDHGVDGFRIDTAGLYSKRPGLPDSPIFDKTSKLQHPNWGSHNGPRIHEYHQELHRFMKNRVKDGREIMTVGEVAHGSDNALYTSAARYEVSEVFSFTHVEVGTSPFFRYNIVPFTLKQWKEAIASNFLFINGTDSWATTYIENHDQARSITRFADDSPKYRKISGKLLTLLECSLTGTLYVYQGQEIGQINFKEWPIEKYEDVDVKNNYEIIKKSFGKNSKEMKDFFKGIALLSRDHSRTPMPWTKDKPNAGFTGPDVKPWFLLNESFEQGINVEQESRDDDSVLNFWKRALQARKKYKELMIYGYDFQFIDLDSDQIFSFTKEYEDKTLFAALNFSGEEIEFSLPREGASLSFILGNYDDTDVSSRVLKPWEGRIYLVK

C[C@@H](O)[C@H]1C(=O)N2C(C(=O)O)=C(SCCN=CN)C[C@H]12 [Imipenem, reference compound]
zone of inhibition at 100 µg/mL [1]: 25 ± 0.3 mm | zone of inhibition at 100 µg/mL [2]: 33 ± 0.1 mm | zone of inhibition at 100 µg/mL [3]: 33 ± 0.2 mm | zone of inhibition at 100 µg/mL [4]: 29 ± 0.5 mm | zone of inhibition at 100 µg/mL [5]: 30 ± 0.5 mm | zone of inhibition at 100 µg/mL [6]: 27 ± 1.1 mm | zone of inhibition at 100 µg/mL [7]: 30 ± 0.5 mm

C[C@H]1O[C@H](O[C@H]2[C@H](O)[C@@H](O)[C@@H](O[C@H]3[C@H](O)[C@@H](O)C(O)O[C@@H]3CO)O[C@@H]2CO)[C@H](O)[C@@H](O)[C@@H]1N[C@H]1C=C(CO)[C@@H](O)[C@H](O)[C@H]1O (stereo partly shown) [Standard acarbose, acarbose, reference compound]
inhibition at 31.05 µg/mL [8]: 48 ± 0.4% | inhibition at 62.5 µg/mL [8]: 62 ± 0.5% | inhibition at 125 µg/mL [8]: 69 ± 0.5% | inhibition at 250 µg/mL [8]: 75 ± 1.1% | inhibition at 500 µg/mL [8]: 83 ± 0.5% | inhibition at 1000 µg/mL [8]: 90 ± 0.5% | % α-Glucosidase Inhibition Mean ± SEM ([9]; 31.05 µg/mL): 60 ± 0.4% | % α-Glucosidase Inhibition Mean ± SEM ([9]; 62.5 µg/mL): 68 ± 0.5% | % α-Glucosidase Inhibition Mean ± SEM ([9]; 125 µg/mL): 71 ± 0.5% | % α-Glucosidase Inhibition Mean ± SEM ([9]; 250 µg/mL): 77 ± 1.0% | % α-Glucosidase Inhibition Mean ± SEM ([9]; 500 µg/mL): 82 ± 0.4% | % α-Glucosidase Inhibition Mean ± SEM ([9]; 1000 µg/mL): 89 ± 0.5%

COc1ccc(Cl)cc1C(=O)NCCc1ccc(S(=O)(=O)NC(=O)NC2CCCCC2)cc1 [glibenclamide, reference compound]
HDL cholesterol [10, 13]: significantly increased (p < 0.01) | HbA1c level [10, 13]: significant decrease (p < 0.01; p < 0.001) | LDL level [10, 13]: significant decrease (p < 0.01; p < 0.001) | TC level [10, 13]: significant decrease (p < 0.01; p < 0.001) | TG level [10, 13]: significant decrease (p < 0.01; p < 0.001) | serum creatinine level ([10]; glibenclamide 5 mg/kg, morin 15, 30, and 50 mg/kg body weight, day 21, vs diabetic control): significantly reduced (p < 0.01; p < 0.001) | ALP level [10, 14]: significantly reduced (p < 0.01; p < 0.001) | SGOT level [10, 14]: significantly reduced (p < 0.01; p < 0.001) | SGPT level [10, 14]: significantly reduced (p < 0.01; p < 0.001) | pancreas histopathology [11]: did not show any violation from the normal histological pattern | body weight ([12]; glibenclamide 0.5 mg/kg, p.o.): significantly (p < 0.001) reversed the diabetes-induced decrease in body weight | fasting glucose level ([12]; glibenclamide 5 mg/kg body weight, day 21): significantly (p < 0.001) decreased
